Measurements published in ChEMBL document CHEMBL2016464, “Identification of Inhibitors of NOD1-Induced Nuclear Factor-κB Activation” (ACS Med Chem Lett, 2011).
Values after ≈ are worked out from the molar mass of the structure shown.

Columns and labels:
[1] = target: Nucleotide-binding oligomerization domain-containing protein 2 (Homo sapiens, UniProt Q9HC29)
HEK-293T = test: Cytotoxicity against HEK293T cells at 20 uM by alamar blue assay; type: cell-based; conditions: human
cells = conditions: Homo sapiens, HEK-293T, 14 h
Description: Inhibition of TNFalpha-induced NFkappaB activation in HEK293T cells after 14 hrs by luciferase reporter gene assay

[2] = Solubility of the compound at pH 7.4; type: physicochemical; conditions: buffer

Chain of Nucleotide-binding oligomerization domain-containing protein 2 (Q9HC29 whole entry, the tested form may be a part): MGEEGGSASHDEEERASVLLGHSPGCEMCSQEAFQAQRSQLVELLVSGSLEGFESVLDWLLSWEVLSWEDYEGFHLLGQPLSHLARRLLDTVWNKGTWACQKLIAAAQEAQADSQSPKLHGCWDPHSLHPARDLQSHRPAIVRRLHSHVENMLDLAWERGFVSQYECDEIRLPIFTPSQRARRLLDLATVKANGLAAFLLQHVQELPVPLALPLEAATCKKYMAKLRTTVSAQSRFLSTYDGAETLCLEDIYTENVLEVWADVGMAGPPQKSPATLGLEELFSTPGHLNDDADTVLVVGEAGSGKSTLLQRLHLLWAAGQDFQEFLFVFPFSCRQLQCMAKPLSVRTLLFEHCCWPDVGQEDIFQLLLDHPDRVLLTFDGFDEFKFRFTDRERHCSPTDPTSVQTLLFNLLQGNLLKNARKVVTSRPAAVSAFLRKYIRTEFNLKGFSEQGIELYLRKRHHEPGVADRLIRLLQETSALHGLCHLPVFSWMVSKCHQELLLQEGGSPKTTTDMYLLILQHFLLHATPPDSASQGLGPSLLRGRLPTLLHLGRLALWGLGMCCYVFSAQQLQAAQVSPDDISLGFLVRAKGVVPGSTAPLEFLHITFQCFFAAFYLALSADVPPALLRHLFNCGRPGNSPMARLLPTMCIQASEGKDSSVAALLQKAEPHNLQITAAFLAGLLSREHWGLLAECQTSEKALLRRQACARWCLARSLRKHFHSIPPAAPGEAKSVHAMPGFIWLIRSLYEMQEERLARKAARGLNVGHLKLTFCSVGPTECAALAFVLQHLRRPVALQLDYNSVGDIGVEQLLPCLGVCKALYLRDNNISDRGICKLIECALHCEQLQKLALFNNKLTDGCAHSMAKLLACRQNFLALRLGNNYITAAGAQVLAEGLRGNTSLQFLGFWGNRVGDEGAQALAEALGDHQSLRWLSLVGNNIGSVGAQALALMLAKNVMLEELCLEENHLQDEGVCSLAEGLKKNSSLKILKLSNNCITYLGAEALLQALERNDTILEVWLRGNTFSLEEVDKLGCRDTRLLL

Row | SMILES | IC50 [1] | Activity (HEK-293T) | IC50 (cells) | solubility [2]
1 | O=C(Nc1ccc(F)cc1)c1ccc(CN2CCc3ccccc3C2)cc1 | 1.85 µM | 0% | 2.88 µM | 
2 | CN(C)c1ccc(NC(=O)c2ccc(CN3CCc4ccccc4C3)cc2)cc1 | 3.58 µM | 0% | 1.83 µM | 
3 | CC(=O)N1c2ccc(S(=O)(=O)N3CCN(c4ccccc4)CC3)cc2CC1C (racemic) | 8.27 µM | 0% | 14.1 µM | 0.1 µg/mL (≈ 0.25 µM)
4 | Nc1nc2ccccc2n1Cc1ccc(Cl)cc1 |  | 0% | > 20 µM | 
5 | Cc1ccc(S(=O)(=O)n2c(C)nc3ccccc32)cc1 |  | 0% |  | 
6 | Nc1nc2ccccc2n1S(=O)(=O)c1ccc(Cl)cc1 |  | 0% |  | 
7 | CC(=O)c1ccc(N2CCN(S(=O)(=O)c3ccc4c(c3)CCN4C(C)=O)CC2)cc1 |  | 0% | > 20 µM | 
8 | O=C(Nc1ccc(Cl)cc1)c1ccc(CN2CCc3ccccc3C2)cc1 | 3.54 µM | 0% | 0.49 µM | 
9 | Nc1nc2ccccc2n1S(=O)(=O)c1ccc([N+](=O)[O-])cc1 |  | 0% |  | 
10 | Nc1nc2ccccc2n1S(=O)(=O)c1ccccc1 |  | 0% | > 20 µM | 
11 | N#Cc1ccc(N2CCN(S(=O)(=O)c3ccc4c(c3)CCN4C(=O)C3CC3)CC2)cc1 |  | 0% | > 20 µM | 
12 | CCC(=O)N1CCc2cc(S(=O)(=O)N3CCN(c4ccc([N+](=O)[O-])cc4)CC3)ccc21 |  | 0% | > 20 µM | 
13 | Nc1nc2ccccc2n1C(=O)c1ccc(F)cc1 |  | 0% |  | 
14 | Cc1ccc(S(=O)(=O)n2cnc3ccccc32)cc1 | > 20 µM | 0% | > 20 µM | 
15 | O=C(Nc1ccc(F)cc1)c1ccc(CN2CCc3ccccc32)cc1 |  | 0% | > 20 µM | 
16 | CCC(=O)N1c2ccc(S(=O)(=O)N3CCN(c4ccc(C(C)=O)cc4)CC3)cc2CC1C (racemic) | 1.58 µM | 0% | 1.63 µM | 0.1 µg/mL (≈ 0.22 µM)
17 | CC1Cc2cc(S(=O)(=O)N3CCN(c4ccc(Cl)cc4)CC3)ccc2N1C(=O)C1CC1 (racemic) | 3.63 µM | 0% | 7.26 µM | 0.1 µg/mL (≈ 0.217 µM)
18 | CCOC(=O)c1ccc(NC(=O)c2ccc(CCN3CCc4ccccc4C3)cc2)cc1 | > 20 µM | 0% | 10.8 µM | 
19 | Cc1ccc(S(=O)(=O)n2c(N)nc3cc(C)c(C)cc32)cc1 |  | 0% | > 20 µM | 
20 | CC(=O)N1c2ccc(S(=O)(=O)N3CCN(c4ccc(Cl)cc4)CC3)cc2CC1C (racemic) | 1.75 µM | 0% | 5.76 µM | 0.1 µg/mL (≈ 0.23 µM)
21 | Nc1nc2ccccc2n1CCC(=O)c1ccc(Cl)cc1 |  | 0% | > 20 µM | 
22 | O=C(Nc1ccc(Br)cc1)c1ccc(CN2CCc3ccccc3C2)cc1 |  | 0% | 1.5 µM | 
23 | CCOC(=O)c1ccc(NC(=O)c2ccc(CN3CCc4ccccc4C3)cc2)cc1 | 0.4 µM | 0% | 0.14 µM | 
24 | COc1ccc(N2CCN(S(=O)(=O)c3ccc4c(c3)CC(C)N4C(C)=O)CC2)cc1 (racemic) | 3.29 µM | 0% | 4.3 µM | 0.1 µg/mL (≈ 0.233 µM)
25 | CN(C)c1ccc(NC(=O)c2ccc(CN3CCc4ccccc43)cc2)cc1 |  | 0% | > 20 µM | 

Row | SMILES | IC50 [1] | Activity (HEK-293T) | IC50 (cells) | solubility [2]
26 | CCOc1ccc(NC(=O)c2ccc(CN3CCCCC3)cc2)cc1 |  | 0% | > 20 µM | 
27 | CSc1ccc(NC(=O)c2ccc(CN3CCCCC3)cc2)cc1 |  | 0% | > 20 µM | 
28 | COc1ccc(NC(=O)c2ccc(CN3CCc4ccccc4C3)cc2)cc1 | 0.78 µM | 0% | 0.65 µM | 
29 | CCC(=O)N1c2ccc(S(=O)(=O)N3CCN(c4ccc(Cl)cc4)CC3)cc2CC1C (racemic) | 0.6 µM | 0% | 0.58 µM | 0.1 µg/mL (≈ 0.223 µM)
30 | Nc1nc2ccccc2n1C(=O)c1ccc(Cl)cc1Cl |  | 0% |  | 
31 | CC(=O)N1c2ccc(S(=O)(=O)N3CCN(c4ccc(C)cc4)CC3)cc2CC1C (racemic) | 3.45 µM | 0% | 4.32 µM | 0.1 µg/mL (≈ 0.242 µM)
32 | CN(C)c1ccc(NC(=O)c2ccc(CN3CCCCC3)cc2)cc1 |  | 0% | > 20 µM | 
33 | CC(=O)N1CCc2cc(S(=O)(=O)N3CCN(c4ccc([N+](=O)[O-])cc4)CC3)ccc21 |  | 0% | > 20 µM | 
34 | CC(=O)N1CCc2cc(S(=O)(=O)N3CCN(c4ccc(C#N)cc4)CC3)ccc21 |  | 0% | 8.79 µM | 0.1 µg/mL (≈ 0.244 µM)
35 | O=C(Nc1ccc(F)cc1)c1ccc(CN2CCCCC2)cc1 |  | 0% | > 20 µM | 
36 | CSc1ccc(NC(=O)c2ccc(CN3CCc4ccccc4C3)cc2)cc1 | 0.26 µM | 0% | 0.37 µM | 
37 | CCC(=O)N1CCc2cc(S(=O)(=O)N3CCN(c4ccc(C#N)cc4)CC3)ccc21 |  | 0% | > 20 µM | 
38 | O=C(C1CC1)N1CCc2cc(S(=O)(=O)N3CCN(c4ccc([N+](=O)[O-])cc4)CC3)ccc21 |  | 0% | > 20 µM | 0.1 µg/mL (≈ 0.219 µM)
39 | Cc1ccc(S(=O)(=O)n2c(S)nc3ccc(C)cc32)cc1 |  | 0% | > 20 µM | 
40 | CC(=O)N1c2ccc(S(=O)(=O)N3CCN(c4ccc([N+](=O)[O-])cc4)CC3)cc2CC1C (racemic) |  | 0% | 3.27 µM | 
41 | CC(=O)c1ccc(N2CCN(S(=O)(=O)c3ccc4c(c3)CC(C)N4C(C)=O)CC2)cc1 (racemic) | 3.72 µM | 0% | 6 µM | 0.1 µg/mL (≈ 0.226 µM)
42 | CC(=O)N1CCc2cc(S(=O)(=O)N3CCN(c4ccc(Cl)cc4)CC3)ccc21 |  | 0% | > 20 µM | 
43 | CC(=O)c1ccc(N2CCN(S(=O)(=O)c3ccc4c(c3)CCN4C(=O)C3CC3)CC2)cc1 |  | 0% | > 20 µM | 
44 | CCC(=O)N1c2ccc(S(=O)(=O)N3CCN(c4ccc([N+](=O)[O-])cc4)CC3)cc2CC1C (racemic) | 1.55 µM | 0% | 4.92 µM | 0.1 µg/mL (≈ 0.218 µM)
45 | COc1ccc(N2CCN(S(=O)(=O)c3ccc4c(c3)CC(C)N4C(=O)C3CC3)CC2)cc1 (racemic) | 0.39 µM | 0% | 3.85 µM | 0.1 µg/mL (≈ 0.22 µM)
46 | COc1ccc(S(=O)(=O)n2c(N)nc3ccccc32)cc1 |  | 0% |  | 
47 | CC1Cc2cc(S(=O)(=O)N3CCN(c4ccc([N+](=O)[O-])cc4)CC3)ccc2N1C(=O)C1CC1 (racemic) | 0.2 µM | 0% | 0.24 µM | 0.1 µg/mL (≈ 0.213 µM)
48 | Cc1ccc(NC(=O)c2ccc(CN3CCc4ccccc4C3)cc2)cc1 | > 20 µM | 0% | > 20 µM | 
49 | CCOc1ccc(NC(=O)c2ccc(CN3CCc4ccccc4C3)cc2)cc1 | 0.57 µM | 0% | 2.05 µM | 
